Measured values taken from patent US20170209544A1, “A PEPTIDE THERAPY TO COUNTERACT INSULIN RESISTANCE AND TYPE 2 DIABETES” (The Regents of the University of California, priority 2014, published 2017).
Where no end group is shown, it is not given here.

Tests used:
[1] = system: adipocytes; assay: Leptin production in adipocytes; type: cell-based
Excerpt: Mutant PST peptides were synthesized and screened. The peptides were synthesized as various deletion peptides of PST. Native PST (SEQ ID NO. 2) inhibited insulin-stimulated glucose uptake and leptin production in adipocytes. The inventors tested various deletion mutant PST peptides whether one or more of them would compete and prevent native PST action in adipocytes.

[2] = system: peritoneal macrophages; assay: In vitro chemotaxis assay; type: cell-based, mice
Procedure: In vitro chemotaxis assays were performed as previously described. Briefly, thioglycollate-activated peritoneal macrophages were isolated from 8 week-old male C57BL/6J mice and pretreated with the indicated concentrations of PST for 2 hours at 37° C. in serum-free RPMI. For migration analysis, 200,000 peritoneal macrophages were placed in each of the upper chamber of a 4-μm polycarbonate filter (24-transwell format; Corning, Tewksbury, Mass.), whereas compounds resuspended in serum-free RPMI at the indicated concentrations were placed in the lower chamber. After 3 hours of migration at 37° C., cells were fixed in 4% paraformaldehyde, stained with DAPI and counted under the microscope.

[3] = system: WT-NCD mice; assay: IP-ITT in WT-NCD mice; type: in vivo; details: chronic PST 5 μg/g BW for 15 days; WT mice on NCD
Procedure: For glucose tolerance tests (GTT), glucose (1 mg/g) was injected intraperitoneally (IP-GTT) (at time zero) or gavaged orally (O-GTT) after a 12-hours fast. Tail-vein glucose levels were measured at −30, 0, 15, 30, 60, 90, and 120 minutes. For insulin tolerance tests (ITT), insulin (0.4 mU/g) was injected intraperitoneally and blood glucose levels were measured at the indicated time points. Chronic PST (5 μg/g/day) and PSTv1 (10 μg/day) treatments were carried out for 15 days. For acute treatment, either peptides or saline were injected 30 minutes before glucose or insulin injection. Synergy Software Kaleidagraph Version 4.0 calculated the area under the curve (AUC) for each line curve.
Treatment with the PST variant PSTv1 improves, whereas PST worsens, glucose tolerance and insulin sensitivity in WT-DIO and WT-NCD mice. WT-DIO mice were treated with saline or PSTv1 (10 μg/g BW/day) for 15 days. Weight-matched DIO mice were fasted for 12 hrs and subjected to IP-GTT (2-way ANOVA: Treatment, p<0.0001; Time, p<0.0001; Interaction, p=0.17, n=6, as shown in FIG. 13A) and IP-ITT (2-way ANOVA: Treatment, p<0.0001; Time, p<0.0001; Interaction, p=0.62 n=9, as shown in FIG. 13C) and AUCs for glucose excursions were determined (as shown in FIGS. 13B and 13D). […]

[4] = system: Chga-KO mice; assay: Glucose-stimulated insulin secretion during GTT in Chga-KO mice; type: in vivo
Excerpt: As shown in FIGS. 4A-4D, to compare the effects of PSTv1 (the peptide with SEQ ID NO. 1) vs. PST on glucose-stimulated insulin secretion (GSIS), the inventors analyzed plasma insulin levels in Chga-KO mice during GTT experiments.

[5] = biological target: GRP78 (Homo sapiens, UniProt P11021); assay: GRP78 ATPase enzymatic activity; type: biochemical
Chain of GRP78 (P11021 19-654, species assumed): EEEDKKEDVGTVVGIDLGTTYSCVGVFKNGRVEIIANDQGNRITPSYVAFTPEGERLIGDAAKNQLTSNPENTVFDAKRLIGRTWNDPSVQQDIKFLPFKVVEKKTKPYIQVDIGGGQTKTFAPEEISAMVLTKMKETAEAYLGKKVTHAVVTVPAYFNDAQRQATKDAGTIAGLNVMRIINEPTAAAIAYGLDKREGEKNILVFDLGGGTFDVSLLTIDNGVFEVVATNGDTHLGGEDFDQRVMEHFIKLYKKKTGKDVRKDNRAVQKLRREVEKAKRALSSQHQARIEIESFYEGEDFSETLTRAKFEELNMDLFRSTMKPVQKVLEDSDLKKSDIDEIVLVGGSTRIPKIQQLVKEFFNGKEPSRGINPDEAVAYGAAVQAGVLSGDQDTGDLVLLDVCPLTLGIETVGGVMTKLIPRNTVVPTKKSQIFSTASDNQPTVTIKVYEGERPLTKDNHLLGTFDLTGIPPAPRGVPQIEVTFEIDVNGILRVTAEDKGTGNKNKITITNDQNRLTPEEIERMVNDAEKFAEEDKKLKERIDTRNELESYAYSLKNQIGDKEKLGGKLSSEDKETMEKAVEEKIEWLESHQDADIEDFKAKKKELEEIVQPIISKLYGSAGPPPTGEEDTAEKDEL

[6] = system: Chga-KO mice; assay: Body weight of Chga-KO mice on NCD; type: in vivo; details: PST administration for 2 weeks
[7] = system: KO-DIO mice; assay: Hepatic gene expression in PST-treated KO-DIO mice; type: in vivo; details: PST 5 μg/g BW for 15 days
Procedure: RNA from tissues was extracted using a kit (RNeasy Plus, Qiagen, Valencia, Calif.). After DNase digestion, 200 ng of RNA was transcribed into cDNA in a 20-μl reaction using a High Capacity cDNA Archive kit and this cDNA was amplified. PCR (25-μl reactions) contained 5 μl of cDNA, 2×SYBR Green PCR Master Mix, and 400 nM of each primer. Differences in the threshold cycle number (ΔCt) between the target gene, the housekeeping gene Gapdh and the ribosomal protein gene 36B4 were used to calculate differences in expression. Primer sequences are provided below.
To determine chronic effects, KO-NCD mice were treated with saline, PST (5 μg/g BW), PSTv1 (10 μg/g BW) or PST+PSTv1 for 15 days, fasted for 12 hrs after the last of injection and subjected to (FIG. 14C) GTT (2-way ANOVA: Treatment (Sal vs PST), Time, p<0.0001; Interaction, p<0.05; Treatment (PST vs PSTv1), p<0.0001; Time, p<0.0001; Interaction, p<0.01; n=7). The corresponding AUC is shown in (FIG. 14D). FIG. 14E reports liver glycogen at basal and during clamp in DIO mice (n=6). FIG. 14F reports chronic effects of PST (5 μg/g BW for 15 days) on expression of hepatic gluconeogenic genes (Pepck and G6pase) in DIO mice (n=6). FIG. 14G reports chronic effects of PST (5 μg/g BW for 15 days) on expression of hepatic lipid metabolic (Acc, Ppara, Cpt-1, Acox-1 and Srebp-1) genes in DIO mice (n=6). […]

PEGKGEQEHSQQKEEEEEMAVVPQGLFRG-amide (PEGKGEQEHSQQKEEEEEMAVVPQGLFRG-NH2) [PST, Wild-type human pancreastatin, a chromogranin A derived peptide]
leptin production [1]: inhibited | chemotaxis relative to Mcp-1 ([2]; 10 nM PST vs 10 nM Mcp-1): 44% | chemotaxis compared to saline-treated controls ([2]; peritoneal macrophage cultures): significantly higher levels of chemotaxis | insulin sensitivity (IP-ITT) [3]: induced insulin resistance | glucose-stimulated insulin secretion (GSIS) [4]: lowers GSIS | plasma glucose concentration [4]: without lowering plasma glucose concentration | GRP78's ATPase enzymatic activity [5]: inhibits | body weight [6]: did not change | lower mRNA levels of Pepck and G6pase in KO-DIO liver [7]: reversed | expression of Acox-1 and Cpt-1 ([7]; liver): increased
